In patent publication US12054495B2, “Substituted macrocyclic compounds and related methods of treatment” (Alkermes, Inc., priority 2019, dated 2024):
Where two headings read alike, the source gives them in different places.

Legend:
[1] = biological target: T1, human orexin-2 receptor (OX2R) (Homo sapiens, UniProt O43614); assay: Human OX2R IP1 assay; format: cell-based; details: T-Rex CHO cells stably overexpressing human OX2R, IP1 accumulation, 1 hr at 37 degrees C; mean EC50; ∧ = racemic mixture
T1 construct: expressed in transfected cells
T1 sequence (O43614 1-444): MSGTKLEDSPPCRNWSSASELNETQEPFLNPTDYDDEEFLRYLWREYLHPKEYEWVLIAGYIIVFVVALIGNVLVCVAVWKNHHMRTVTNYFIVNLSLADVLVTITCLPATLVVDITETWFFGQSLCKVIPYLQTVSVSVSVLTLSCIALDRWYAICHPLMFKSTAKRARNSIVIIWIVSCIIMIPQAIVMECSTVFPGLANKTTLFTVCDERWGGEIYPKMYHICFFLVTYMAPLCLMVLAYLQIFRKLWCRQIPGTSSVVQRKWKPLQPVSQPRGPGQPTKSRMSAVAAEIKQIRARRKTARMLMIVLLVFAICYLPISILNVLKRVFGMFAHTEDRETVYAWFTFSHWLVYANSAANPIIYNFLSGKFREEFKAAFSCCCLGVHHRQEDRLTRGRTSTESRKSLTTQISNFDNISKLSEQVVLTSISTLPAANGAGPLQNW
In short: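 Doxycycline-induced T-Rex CHO cells stably expressing human OX2R treated with compound 1 hr at 37 °C in LiCl-containing buffer, pH 7.4. IP1 accumulation quantified by HTRF competitive immunoassay; EC50 reported as mean ± S.E.M.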

Sprague-Dawley rats = assay: Assessment of wake promotion in Sprague-Dawley rats (EEG/EMG); format: in vivo; details: Rattus norvegicus, 3 mpk, male Sprague-Dawley rats, dosed at ZT5, 6-hour post-dose period, read-out: Mean cortical activation time (% vehicle treatment)
Description: Wake promotion was assessed using electroencephalography (EEG) and electromyography (EMG) in adult male Sprague-Dawley rats (350-600 g). All rats (Charles River Laboratories, Raleigh, NC, USA) were intraperitoneally implanted with telemetry devices (F50-EEE, Data Sciences International Inc., M/N, USA) under isoflurane anesthesia. For EEG, stainless steel screws were implanted over frontal cortex and parietal cortex, and reference screws were placed over cerebellum. Additionally, an electrode was placed in neck muscle for EMG. Rats were given carprofen post-surgery and underwent a 7 to 10-day recovery period. Rats habituated to the experimental room for 7 days and were maintained on a 12-hour light-dark cycle.
EEG and EMG data were recorded using the DSI telemetry system and Ponemah software (Data Sciences International Inc., MN, USA). Sleep-wake stages were scored both manually and with Somnivore, a supervised machine learning software platform, in 10 second epocs. Records were visually inspected as needed post-processing.
All test compounds were dissolved in 5% DMSO and suspended in 95% saline with 0.5% methylcellulose and 0.5% tween. […] Unless otherwise indicated, all compounds were dosed orally. Recordings for each rat were initiated immediately after dosing and lasted for 6 hours post-dose.
Two key endpoints include wakefulness time and cortical activation time. Wakefulness time is derived from the sleep-wake stage analysis. Cortical activation time is based on the duration in which frontal gamma oscillatory activity (30-100 Hz), a key feature of wakefulness, was elevated relative to a pre-treatment baseline. Mean cortical activation time was computed relative to vehicle treatment for the 6-hour post-dose period.

human hepatocytes = assay: Hepatocytes stability assay (human hepatocytes); format: in vitro ADME; details: scaled hepatic clearance divided by liver blood flow, fu assumed unity
In short: (§1)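 Cryopreserved pooled (50 donors, mixed gender) human hepatocytes at 1×10^6 cells/mL in Krebs-Henseleit buffer with 1 μM compound (0.1% DMSO), 37 degrees C, sampled 0–240 min. Parent depletion by LC-MS/MS; first-order fit gave T1/2 and CLint, scaled to hepatic clearance via well-stirred model (fu assumed 1); extraction ratio = CL,hep/liver blood flow.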

[2] = Hepatocytes stability assay (human hepatocytes); format: in vitro ADME; details: both sexes, cryopreserved hepatocytes, 1 μM test compound, 1×10^6 cell/mL, 37 degrees C, read-out: CLint (μL/min/million cells)
In short: as §1

EC50 [1] [nM] | Extraction Ratio (ER) (human hepatocytes) | hepatocyte CLint at 1 μM [2] [µL/min/1e6 cells] | Compound | response vs control in vivo at 3 mg/kg (Sprague-Dawley rats; PO) [%] | response vs control in vivo at 3 mg/kg (Sprague-Dawley rats; SC) [%]
< 100 | 0.64 | 12 | CS(=O)(=O)N[C@@H]1CCCN2C(=O)COc3cccc(F)c3[C@H]3CC[C@H](CC3)OC[C@H]12 (racemic) [Compound 49] | 340 | –
< 100 | 0.88 | 51 | COC(=O)N1CCC[C@H](NS(C)(=O)=O)[C@@H]1CO[C@H]1CC[C@@H](c2ccccc2)CC1 [methyl (2R,3S)-3-((methylsulfonyl)amino)-2-(((cis-4-phenylcyclohexyl)oxy)methyl)-piperidine-1-carboxylate, reference compound] | – | 119
